Assay results reported in the NIST ThermoML archive (doi:10.1016/j.jct.2004.08.003).
Numbers after ± are expanded uncertainties.

Legend:
[1] = xn = mol fraction of the nth substance listed; settings: 101.3 kPa, Liquid
[2] = relative permittivity at various frequencies (dimensionless); xn = mol fraction of the nth substance listed; settings: 101.3 kPa, Liquid, HP4284A LCR Meter with HP16452A measuring cell

COCCOCCOCCOC [2,5,8,11-tetraoxadodecane] + CCCCCCCCC
Settings	mass density [kg/m3]	relative permittivity
[1], 288.15 K, x1 = 0.0981	746.25 ± 1.1	–
[1], 288.15 K, x1 = 0.1985	771.84 ± 0.99	–
[1], 288.15 K, x1 = 0.2459	784.06 ± 0.96	–
[1], 288.15 K, x1 = 0.2944	796.71 ± 0.93	–
[1], 288.15 K, x1 = 0.3937	822.83 ± 0.86	–
[1], 288.15 K, x1 = 0.4957	850.01 ± 0.8	–
[1], 288.15 K, x1 = 0.5957	876.93 ± 0.73	–
[1], 288.15 K, x1 = 0.6952	904 ± 0.68	–
[1], 288.15 K, x1 = 0.7937	931.06 ± 0.63	–
[1], 288.15 K, x1 = 0.9005	960.86 ± 0.59	–
[1], 288.15 K, x1 = 0.9494	974.71 ± 0.58	–
[1], 293.15 K, x1 = 0.1006	742.71 ± 1.1	–
[1], 293.15 K, x1 = 0.1961	766.97 ± 1	–
[1], 293.15 K, x1 = 0.2461	779.84 ± 0.97	–
[1], 293.15 K, x1 = 0.2982	793.34 ± 0.94	–
[1], 293.15 K, x1 = 0.3979	819.48 ± 0.87	–
[1], 293.15 K, x1 = 0.4995	846.49 ± 0.81	–
[1], 293.15 K, x1 = 0.5939	871.77 ± 0.75	–
[1], 293.15 K, x1 = 0.6986	900.11 ± 0.69	–
[1], 293.15 K, x1 = 0.7979	927.37 ± 0.64	–
[1], 293.15 K, x1 = 0.9022	956.37 ± 0.6	–
[1], 293.15 K, x1 = 0.95	969.87 ± 0.59	–
[1], 298.15 K, x1 = 0.1006	738.55 ± 1.1	–
[1], 298.15 K, x1 = 0.1961	762.73 ± 1	–
[1], 298.15 K, x1 = 0.2461	775.58 ± 0.98	–
[1], 298.15 K, x1 = 0.2982	789.07 ± 0.95	–
[1], 298.15 K, x1 = 0.3979	815.17 ± 0.88	–
[1], 298.15 K, x1 = 0.4995	842.12 ± 0.82	–
[1], 298.15 K, x1 = 0.5939	867.4 ± 0.76	–
[1], 298.15 K, x1 = 0.6986	895.69 ± 0.7	–
[1], 298.15 K, x1 = 0.7979	922.84 ± 0.65	–
[1], 298.15 K, x1 = 0.9022	951.81 ± 0.61	–
[1], 298.15 K, x1 = 0.95	965.31 ± 0.6	–
[1], 303.15 K, x1 = 0.0982	733.94 ± 1.1	–
[1], 303.15 K, x1 = 0.2002	759.61 ± 1	–
[1], 303.15 K, x1 = 0.2485	771.99 ± 0.99	–
[1], 303.15 K, x1 = 0.2996	785.17 ± 0.96	–
[1], 303.15 K, x1 = 0.3994	811.21 ± 0.89	–
[1], 303.15 K, x1 = 0.495	836.5 ± 0.83	–
[1], 303.15 K, x1 = 0.5989	864.2 ± 0.77	–
[1], 303.15 K, x1 = 0.6998	891.41 ± 0.71	–
[1], 303.15 K, x1 = 0.8005	918.9 ± 0.66	–
[1], 303.15 K, x1 = 0.8999	946.47 ± 0.62	–
[1], 303.15 K, x1 = 0.9499	960.53 ± 0.6	–
[1], 308.15 K, x1 = 0.0977	729.91 ± 1.1	–
[1], 308.15 K, x1 = 0.1975	754.98 ± 1	–
[1], 308.15 K, x1 = 0.2469	767.58 ± 1	–
[1], 308.15 K, x1 = 0.2964	780.35 ± 0.97	–
[1], 308.15 K, x1 = 0.3944	805.91 ± 0.91	–
[1], 308.15 K, x1 = 0.4956	832.62 ± 0.84	–
[1], 308.15 K, x1 = 0.5976	859.8 ± 0.78	–
[1], 308.15 K, x1 = 0.6967	886.45 ± 0.72	–
[1], 308.15 K, x1 = 0.7937	912.91 ± 0.67	–
[1], 308.15 K, x1 = 0.9021	942.91 ± 0.62	–
[1], 308.15 K, x1 = 0.9497	956.38 ± 0.61	–
[1], 318.15 K, x1 = 0.0998	722.15 ± 1.1	–
[1], 318.15 K, x1 = 0.1975	746.41 ± 1.1	–
[1], 318.15 K, x1 = 0.2484	759.29 ± 1	–
[1], 318.15 K, x1 = 0.3021	773.02 ± 1	–
[1], 318.15 K, x1 = 0.3883	795.32 ± 0.94	–
[1], 318.15 K, x1 = 0.4998	824.5 ± 0.87	–
[1], 318.15 K, x1 = 0.5991	850.79 ± 0.8	–
[1], 318.15 K, x1 = 0.6998	877.63 ± 0.74	–
[1], 318.15 K, x1 = 0.799	904.47 ± 0.69	–
[1], 318.15 K, x1 = 0.9009	932.54 ± 0.64	–
[1], 318.15 K, x1 = 0.9498	946.28 ± 0.63	–
[1], 328.15 K, x1 = 0.0998	713.9 ± 1.2	–
[1], 328.15 K, x1 = 0.1975	737.96 ± 1.1	–
[1], 328.15 K, x1 = 0.2484	750.75 ± 1.1	–
[1], 328.15 K, x1 = 0.3021	764.37 ± 1	–
[1], 328.15 K, x1 = 0.3883	786.52 ± 0.96	–
[1], 328.15 K, x1 = 0.4998	815.5 ± 0.89	–
[1], 328.15 K, x1 = 0.5991	841.63 ± 0.83	–
[1], 328.15 K, x1 = 0.6998	868.32 ± 0.76	–
[1], 328.15 K, x1 = 0.799	894.99 ± 0.71	–
[1], 328.15 K, x1 = 0.9009	922.95 ± 0.66	–
[1], 328.15 K, x1 = 0.95	936.74 ± 0.64	–
[2], 288.15 K, x1 = 0.0979	–	2.32 ± 0.05
[2], 288.15 K, x1 = 0.1997	–	2.72 ± 0.05
[2], 288.15 K, x1 = 0.2461	–	2.91 ± 0.06
[2], 288.15 K, x1 = 0.2965	–	3.15 ± 0.06
[2], 288.15 K, x1 = 0.3969	–	3.65 ± 0.07
[2], 288.15 K, x1 = 0.5043	–	4.24 ± 0.08
[2], 288.15 K, x1 = 0.6013	–	4.83 ± 0.1
[2], 288.15 K, x1 = 0.6972	–	5.48 ± 0.11
[2], 288.15 K, x1 = 0.7975	–	6.22 ± 0.12
[2], 288.15 K, x1 = 0.8996	–	7.02 ± 0.14
[2], 288.15 K, x1 = 0.9503	–	7.44 ± 0.15
[2], 293.15 K, x1 = 0.0979	–	2.3 ± 0.05
[2], 293.15 K, x1 = 0.1999	–	2.7 ± 0.05
[2], 293.15 K, x1 = 0.2483	–	2.9 ± 0.06
[2], 293.15 K, x1 = 0.2962	–	3.12 ± 0.06
[2], 293.15 K, x1 = 0.3968	–	3.61 ± 0.07
[2], 293.15 K, x1 = 0.5047	–	4.2 ± 0.08
[2], 293.15 K, x1 = 0.6015	–	4.78 ± 0.1
[2], 293.15 K, x1 = 0.6957	–	5.4 ± 0.11
[2], 293.15 K, x1 = 0.7975	–	6.11 ± 0.12
[2], 293.15 K, x1 = 0.8996	–	6.9 ± 0.14
[2], 293.15 K, x1 = 0.951	–	7.31 ± 0.15
[2], 298.15 K, x1 = 0.0975	–	2.3 ± 0.05
[2], 298.15 K, x1 = 0.2091	–	2.72 ± 0.05
[2], 298.15 K, x1 = 0.2569	–	2.92 ± 0.06
[2], 298.15 K, x1 = 0.2955	–	3.08 ± 0.06
[2], 298.15 K, x1 = 0.4035	–	3.61 ± 0.07
[2], 298.15 K, x1 = 0.5005	–	4.13 ± 0.08
[2], 298.15 K, x1 = 0.5944	–	4.67 ± 0.09
[2], 298.15 K, x1 = 0.6956	–	5.32 ± 0.11
[2], 298.15 K, x1 = 0.8007	–	6.04 ± 0.12
[2], 298.15 K, x1 = 0.901	–	6.79 ± 0.14
[2], 298.15 K, x1 = 0.9489	–	7.17 ± 0.14
[2], 303.15 K, x1 = 0.099	–	2.28 ± 0.05
[2], 303.15 K, x1 = 0.2015	–	2.66 ± 0.05
[2], 303.15 K, x1 = 0.2491	–	2.86 ± 0.06
[2], 303.15 K, x1 = 0.297	–	3.06 ± 0.06
[2], 303.15 K, x1 = 0.4001	–	3.56 ± 0.07
[2], 303.15 K, x1 = 0.4967	–	4.06 ± 0.08
[2], 303.15 K, x1 = 0.596	–	4.63 ± 0.09
[2], 303.15 K, x1 = 0.6976	–	5.27 ± 0.11
[2], 303.15 K, x1 = 0.7976	–	5.93 ± 0.12
[2], 303.15 K, x1 = 0.9012	–	6.69 ± 0.13
[2], 303.15 K, x1 = 0.9496	–	7.06 ± 0.14
[2], 308.15 K, x1 = 0.0979	–	2.26 ± 0.05
[2], 308.15 K, x1 = 0.1997	–	2.63 ± 0.05
[2], 308.15 K, x1 = 0.2461	–	2.81 ± 0.06
[2], 308.15 K, x1 = 0.2965	–	3.03 ± 0.06
[2], 308.15 K, x1 = 0.3969	–	3.49 ± 0.07
[2], 308.15 K, x1 = 0.5043	–	4.05 ± 0.08
[2], 308.15 K, x1 = 0.6013	–	4.6 ± 0.09
[2], 308.15 K, x1 = 0.6972	–	5.19 ± 0.1
[2], 308.15 K, x1 = 0.7975	–	5.85 ± 0.12
[2], 308.15 K, x1 = 0.8996	–	6.58 ± 0.13
[2], 308.15 K, x1 = 0.9503	–	6.96 ± 0.14
[2], 318.15 K, x1 = 0.0987	–	2.24 ± 0.05
[2], 318.15 K, x1 = 0.2016	–	2.6 ± 0.05
[2], 318.15 K, x1 = 0.248	–	2.78 ± 0.06
[2], 318.15 K, x1 = 0.2973	–	2.97 ± 0.06
[2], 318.15 K, x1 = 0.4	–	3.43 ± 0.07
[2], 318.15 K, x1 = 0.502	–	3.94 ± 0.08
[2], 318.15 K, x1 = 0.6006	–	4.48 ± 0.09
[2], 318.15 K, x1 = 0.6982	–	5.07 ± 0.1
[2], 318.15 K, x1 = 0.8053	–	5.75 ± 0.12
[2], 318.15 K, x1 = 0.9018	–	6.42 ± 0.13
[2], 318.15 K, x1 = 0.9503	–	6.75 ± 0.14
[2], 328.15 K, x1 = 0.1007	–	2.23 ± 0.04
[2], 328.15 K, x1 = 0.2003	–	2.57 ± 0.05
[2], 328.15 K, x1 = 0.2486	–	2.75 ± 0.06
[2], 328.15 K, x1 = 0.2973	–	2.95 ± 0.06
[2], 328.15 K, x1 = 0.3958	–	3.38 ± 0.07
[2], 328.15 K, x1 = 0.496	–	3.86 ± 0.08
[2], 328.15 K, x1 = 0.5967	–	4.38 ± 0.09
[2], 328.15 K, x1 = 0.6922	–	4.92 ± 0.1
[2], 328.15 K, x1 = 0.798	–	5.55 ± 0.11
[2], 328.15 K, x1 = 0.8997	–	6.21 ± 0.12
[2], 328.15 K, x1 = 0.9487	–	6.53 ± 0.13
